Assay results taken from patent US7399744B2, “Methods for affecting body composition” (Amylin Pharmaceuticals, Inc., priority 2004, dated 2008).
Marks after values point to notes of the source that are not given here. Ends that are not written are not given here.

How the values were obtained:
[1] = test system: insulin-stimulated glycogen synthesis in soleus muscle; assay: Soleus muscle assay; assay type: cell-based; conditions: rat soleus muscle, inhibition of glucose incorporation into glycogen
Method: Concentrations of peptide dissolved in carrier-free buffers are determined by quantitative amino acid analysis, as described therein. The ability of compounds to act as agonists in this assay is determined by measuring EC50 values. […] Similar results were obtained with other agonist compounds listed above.

[2] = Amylin or sibutramine by 28-day osmotic pump in high fat-fed rats (Example 1); assay type: in vivo, rat; conditions: for Body Weight / Caloric Intake: amylin 300 μg/kg/day or sibutramine 3 mg/kg/day, s.c. 28-day osmotic pump, high fat-fed rats, vs high fat-fed controls
Method: (§1) Low fat-fed rats (11% kcal from fat, D12329, Research Diets) were also implanted with pumps delivering vehicle. Food intake and body weight measurements were obtained weekly.
Rats were sacrificed by cardiac puncture under anesthesia. Triglyceride levels were measured on a COBAS Mira plasma analyzer (Roche), and leptin and insulin were assayed according to Linco Research rat RIA kits. Body composition was measured by chemical analysis (Covance Laboratories, Madison, Wis.).
All data are represented as mean±SEM. Analysis of variance was used to test for group differences.
The rats were fattened for 10 weeks prior to drug treatment. The high fat-fed rats were designated as obesity-prone (top 50% of weight gainers) or obesity-resistant (bottom 50%) based on the amount of weight gained through week 7.
In this study, an obesity-prone/obesity-resistant difference in drug interaction was found for protein weight in amylin-treated rats, and thus body composition parameters were measured separately in obesity-prone and obesity-resistant animals in each drug group (FIGS. 2A and 2B).

[3] = Three doses of amylin by osmotic pump in high fat-fed rats (Example 2); assay type: in vivo, rat; conditions: for Body Weight / Caloric Intake: high fat-fed rats, vs high fat-fed controls
Excerpt: as §1

[4] = Chronic amylin infusion vs pair-feeding in lean HSD rats (Example 3); assay type: in vivo, rat
Method: Lean, male Harlan SPRAGLE DAWLEY® (HSD) (Harlan 7012) rats were maintained on “standard chow” (˜5% calories from fat).
Food intake and body weight were recorded daily (FIGS. 5, 6A, 6B, 7, 8A, and 8B).
On the final day of the experiment, rats were deeply anaesthetized and sacrificed by cardiac puncture. Plasma triglycerides, glucose, and cholesterol were measured on a COBAS Mira plasma Analyzer (Roche). Plasma leptin and insulin were measured using Linco Research kits. (See, FIGS. 9A-9F and 10A-10E.) Body composition was measured by chemical analysis (Covance Laboratories, Madison, Wis.). Fat pad weights of the epididymal, retroperitoneal, subcutaneous, and perirenal fat pads (all unilateral; analysis only done in DIO animals) were carefully dissected and weighed (FIGS. 12A-12D). In analyzing the tissue biochemistry, […] were powdered under liquid N2 and extracted in chloroform:methanol. 0.6% NaCl solution was then added and the tubes were vortexed, centrifuged, and the organic phase was transferred to glass scintillation vials and dried under a stream of N2. Dried lipids were resuspended and triglycerides were quantified by enzymatic assay (Pointe Scientific, Inc.). Tissue glycogen was measured by the amyloglucosidase method. (See FIGS. 11A-11D.)
All data are represented as mean±SEM. Analysis of variance (ANOVA) and Bonferroni post-hoc tests were used to test for group differences (SYSTAT® for Windows). A P-value <0.05 was considered significant. Graphs were generated using PRISM® 4 for Windows (Graphpad Software).

[5] = Chronic amylin infusion vs pair-feeding in DIO Levin rats (Example 3); assay type: in vivo, rat; design: reduction in body weight relative to vehicle controls / Weight (g) / Ash (%): dose or concentration left out as unconfirmed
[6] = Amylin with prior or concurrent food restriction in retired female breeder rats (Example 4); assay type: in vivo, rat; conditions: for % Change in fat / % Change in protein / Estimated Mean Weight change from treatment: amylin 100 μg/kg/day, retired female breeder rats, high fat diet
Excerpt: Retired female breeder rats were maintained on a high fat diet (40% fat) for 8 weeks. Prior to drug treatment, rats were either ad-lib fed or food restricted to 95% of their starting body weight.
Changes in body weight and body composition are summarized in the table below and depicted in FIGS. 13A-13P.

[7] = Amylin versus pramlintide in DIO Levin rats (Example 5); assay type: in vivo, rat; conditions: 76 nmol/kg/day by osmotic mini-pump for 24 days
Method: 48 DIO Levin rats (an in-bred model of diet induced obesity) were used in this study. […] Food intake and body weight was measured daily. […] The pair-fed groups were only allowed to consume the daily intakes of their respective drug-treated groups. For body composition, rats were scanned in a rodent NMR before treatment and after sacrifice (at the end of the study), allowing for the ability to calculate changes in carcass fat and protein (e.g., lean tissue).

[8] = amylin 300 mg/kg/day, s.c. 28-day osmotic pump, body composition by chemical analysis
[9] = DIO rats, amylin 300 mg/kg/day, s.c. 28-day osmotic pump, body composition by chemical analysis
[10] = food access prior Ad-lib, during Ad-lib
[11] = food access prior Ad-lib, during Restricted
[12] = food access prior Restricted, during Ad-lib
[13] = food access prior Restricted, during Restricted

## ^2,37h-Amylin
[1]
  EC50: 1.63 nM

## amylin: Amylin synthesized by Amylin Pharmaceuticals, Inc. by solid-phase chemistry; species not stated (KCNTATCATQRLANFLVHSSNNFGAILSSTNVGSNTY; not fully specified (C-terminus, bridges); cysteine pairing not given here; UniProt P10997 34-70, looked up)
[2]; Week 1
  Body Weight: 6%*
  Caloric Intake: 45%*
[2]; Week 2
  Body Weight: 7%*
  Caloric Intake: 14%*
[2]; Week 3
  Body Weight: 8%*
  Caloric Intake: 10%*
[2]; Week 4
  Body Weight: 8%*
  Caloric Intake: 10%*
[2]; administered by osmotic pump
  tolerance/resistance: did not induce tolerance/resistance
[2]; obesity-prone rats
  protein compared to the control group (vehicle only): increase
[3]; 30 μg/kg/day
  body weight gain: reduction
[3]; 30 μg/kg/day amylin, Week 1
  Body Weight: 5%*
  Caloric Intake: 32%*
[3]; 30 μg/kg/day amylin, Week 2
  Body Weight: 7%*
  Caloric Intake: 17%*
[3]; 30 μg/kg/day amylin, Week 3
  Body Weight: 7%*
  Caloric Intake: 10%
[3]; 30 μg/kg/day amylin, Week 4
  Body Weight: 7%*
  Caloric Intake: 8%
[3]; 100 μg/kg/day amylin, Week 1
  Body Weight: 10%*
  Caloric Intake: 45%*
[3]; 100 μg/kg/day amylin, Week 2
  Body Weight: 10%*
  Caloric Intake: 19%*
[3]; 100 μg/kg/day amylin, Week 3
  Body Weight: 9%*
  Caloric Intake: 4%
[3]; 100 μg/kg/day amylin, Week 4
  Body Weight: 8%*
  Caloric Intake: 9%
[3]; 300 μg/kg/day amylin, Week 1
  Body Weight: 7%*
  Caloric Intake: 41%*
[3]; 300 μg/kg/day amylin, Week 2
  Body Weight: 8%*
  Caloric Intake: 15%*
[3]; 300 μg/kg/day amylin, Week 3
  Body Weight: 10%*
  Caloric Intake: 19%*
[3]; 300 μg/kg/day amylin, Week 4
  Body Weight: 12%*
  Caloric Intake: 19%*
[3]; 30, 100 and 300 μg/kg/day
  effects on food intake and body weight across doses: dose-dependent
[4]
  percent body fat relative to pair-fed: lower
  percent protein: remained relatively constant
  weight gain compared to vehicle rats: significant reduction
[4]; amylin 300 μg/kg/day, osmotic pump
  reduction in body weight relative to vehicle controls: 12%
[4]; amylin 300 μg/kg/day, s.c. 28-day osmotic pump, body composition by chemical analysis
  Fat (%): 7.2 ± 1.5 %
[4]; amylin 300 μg/kg/day, s.c. 28-day osmotic pump, end of study
  Weight (g): 392.25* g
[4]; [8]
  Moisture (%): 67.57 ± 0.7 %
  Protein (%): 20.67 ± 0.74%
[5]; DIO rats
  percent body fat: significant decrease
  percent protein: significant preservation or gain
  weight gain compared to vehicle rats: significant reduction
[5]; [9]
  Fat (%): 24.3 ± 6.5 %
  Moisture (%): 56.68 ± 4.4 %
  Protein (%): 18.09 ± 1.68 %
[5]; DIO rats, osmotic pump
  reduction in body weight relative to vehicle controls: 12%
[5]; DIO rats, s.c. 28-day osmotic pump, body composition by chemical analysis
  Ash (%): 1.65 ± 0.34%
[5]; DIO rats, s.c. 28-day osmotic pump, end of study
  Weight (g): 548.94* g
[5]; tissue biochemistry, amyloglucosidase method
  muscle glycogen content: significantly reduced
[6]; FIGS. 13E-13H
  food intake versus vehicle treated counterparts: ate less
[6]; all treatment conditions
  Body Weight: significantly reduced
[6]; except in ad-lib fed then food restricted group
  percent protein: increases
[6]; except in chronically restricted animals
  percent body fat: significant decreases
[6]; [10]
  % Change in fat: −10.1 ± 0.5%
  % Change in protein: 0.8 ± 0.1%
  Estimated Mean Weight change from treatment: -21.8 ± 1.4 g
[6]; [11]
  % Change in fat: −9.9 ± 0.9%
  % Change in protein: 0.7 ± 0.1%
  Estimated Mean Weight change from treatment: -23.1 ± 2.3 g
[6]; [12]
  % Change in fat: −11.5 ± 0.6%
  % Change in protein: 1.1 ± 0.1%
  Estimated Mean Weight change from treatment: -18.2 ± 2.5 g
[6]; [13]
  % Change in fat: −11.1 ± 1.0%
  % Change in protein: 1.0 ± 0.1%
  Estimated Mean Weight change from treatment: -17.1 ± 2.0 g
[7]
  slowing body weight gain: significant effect
[7]; rodent NMR
  effects on body composition: favorable effects

## CC(C)CC(N(C)C)C1(c2ccc(Cl)cc2)CCC1 (stereo not drawn) [SIBUTRAMINE, sibutramine, reference compound]
[2]; Week 1
  Body Weight: 6%*
  Caloric Intake: 45%*
[2]; Week 2
  Body Weight: 6%*
  Caloric Intake: 8%*
[2]; Week 3
  Body Weight: 6%*
  Caloric Intake: −1%
[2]; Week 4
  Body Weight: 3%
  Caloric Intake: −3%
